The record followed here is ChEMBL document CHEMBL5223191, “Discovery of a Novel Series of Imidazopyrazine Derivatives as Potent SHP2 Allosteric Inhibitors” (ACS Med Chem Lett, 2023).

Data set [1] deals with T1, Tyrosine-protein phosphatase non-receptor type 11 (Homo sapiens, UniProt Q06124).
T1 sequence (Q06124 whole entry): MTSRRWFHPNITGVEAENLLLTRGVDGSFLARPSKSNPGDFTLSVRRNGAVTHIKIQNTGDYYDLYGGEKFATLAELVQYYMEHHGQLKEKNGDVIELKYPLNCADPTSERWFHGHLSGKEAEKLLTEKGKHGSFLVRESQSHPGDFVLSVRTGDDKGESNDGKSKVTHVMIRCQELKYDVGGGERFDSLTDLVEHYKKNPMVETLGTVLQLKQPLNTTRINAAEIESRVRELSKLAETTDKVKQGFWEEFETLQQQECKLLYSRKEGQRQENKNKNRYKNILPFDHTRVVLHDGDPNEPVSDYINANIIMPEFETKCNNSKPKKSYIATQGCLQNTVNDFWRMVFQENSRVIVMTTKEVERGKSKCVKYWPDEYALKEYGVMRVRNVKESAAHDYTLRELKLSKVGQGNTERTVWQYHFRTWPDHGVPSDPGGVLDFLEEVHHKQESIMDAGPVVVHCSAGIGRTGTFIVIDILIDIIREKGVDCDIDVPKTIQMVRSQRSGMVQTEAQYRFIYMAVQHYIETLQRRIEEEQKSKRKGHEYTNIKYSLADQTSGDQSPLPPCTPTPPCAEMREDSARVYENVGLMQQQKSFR
Kind of data set: Allosteric inhibition of IRS1 peptide-activated human recombinant SHP2 (Met1 to Leu525) expressed in Escherichia coli assessed as inhibition of dephosphorylation of 6,8-difluoro-4-methylumbelliferyl phosphate using DiFMUP as substrate preincubated with enzyme for 30 mins followed by substrate addition and measured after 30 mins by DiFMUP assay.

Data set [2] concerns the target T1, Tyrosine-protein phosphatase non-receptor type 11. Kind of data set: Allosteric inhibition of SHP2 in human KYSE-520 cells assessed as inhibition of ERK phosphorylation incubated for 2 hrs by TR-FRET assay. The format is cell-based, KYSE-520 cell line. (Time-resolved FRET reads energy transfer from a long-lived donor to a nearby acceptor.)
In another data set the test system is KYSE-520 cell line. Kind of data set: Antiproliferative activity against EGFR-amplified human KYSE-520 cells assessed as inhibition of cell proliferation incubated for 72 hrs by CellTiter-Glo reagent based luminescence assay. The format is functional. Conditions: KYSE-520, 72 h. A general note: In ATP-based viability assays light output follows the ATP content of the culture.

For data set [3], the target named is Voltage-gated inwardly rectifying potassium channel KCNH2 (Homo sapiens, UniProt Q12809). Kind of data set: Displacement of E-4031 from hERG by fluorescence polarization assay. The format is toxicity.
Voltage-gated inwardly rectifying potassium channel KCNH2, sequence (Q12809 whole entry): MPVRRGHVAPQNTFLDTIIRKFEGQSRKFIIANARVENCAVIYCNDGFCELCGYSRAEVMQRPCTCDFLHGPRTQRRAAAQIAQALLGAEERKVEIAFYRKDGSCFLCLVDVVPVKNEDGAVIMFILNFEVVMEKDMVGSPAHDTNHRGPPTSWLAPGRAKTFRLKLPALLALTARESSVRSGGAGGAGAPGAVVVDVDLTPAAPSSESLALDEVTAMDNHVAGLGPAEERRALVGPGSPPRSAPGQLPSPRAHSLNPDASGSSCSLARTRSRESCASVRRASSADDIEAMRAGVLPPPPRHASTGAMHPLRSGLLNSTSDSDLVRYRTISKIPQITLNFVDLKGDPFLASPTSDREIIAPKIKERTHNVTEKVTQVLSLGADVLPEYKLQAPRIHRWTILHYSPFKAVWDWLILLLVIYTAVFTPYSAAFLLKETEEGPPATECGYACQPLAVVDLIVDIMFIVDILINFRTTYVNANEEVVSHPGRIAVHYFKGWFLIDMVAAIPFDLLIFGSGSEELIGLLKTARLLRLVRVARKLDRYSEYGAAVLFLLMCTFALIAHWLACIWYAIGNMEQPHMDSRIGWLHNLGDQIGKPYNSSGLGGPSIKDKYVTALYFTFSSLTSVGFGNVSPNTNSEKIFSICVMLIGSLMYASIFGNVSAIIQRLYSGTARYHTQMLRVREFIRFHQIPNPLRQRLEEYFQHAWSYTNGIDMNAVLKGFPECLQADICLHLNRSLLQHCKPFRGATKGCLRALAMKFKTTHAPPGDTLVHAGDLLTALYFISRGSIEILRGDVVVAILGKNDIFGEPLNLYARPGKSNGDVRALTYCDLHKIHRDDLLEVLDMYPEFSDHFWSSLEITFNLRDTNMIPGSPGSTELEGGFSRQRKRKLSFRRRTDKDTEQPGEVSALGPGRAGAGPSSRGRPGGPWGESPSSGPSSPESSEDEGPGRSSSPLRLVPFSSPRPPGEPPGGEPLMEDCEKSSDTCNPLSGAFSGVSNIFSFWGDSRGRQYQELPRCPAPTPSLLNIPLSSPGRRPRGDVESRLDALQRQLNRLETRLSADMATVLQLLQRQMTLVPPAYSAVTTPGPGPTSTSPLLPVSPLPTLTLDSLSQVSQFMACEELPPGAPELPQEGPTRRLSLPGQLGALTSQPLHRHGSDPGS
Data set [4] is described as follows: Drug metabolism in C57BL/6 mouse liver microsomes assessed as 1'-(6-((2-(trifluoromethyl)pyridin-3-yl)sulfonyl)-1H-imidazo[4,5-b]pyrazin-2-yl)-1,3-dihydrospiro[indene-2,4'-piperidin]-1-amine formation at 1 uM measured after 60 mins in presence of NADPH by MetID study analysis. The format is ADME, Microsome. (In general: Liver microsomes are vesicles of endoplasmic reticulum, rich in cytochrome P450 enzymes.)

Data set [5] in a line: Intrinsic clearance in Sprague-Dawley rat at 0.5 mg/kg, iv measured for 24 hrs by LC-MS/MS analysis. In kind it is ADME, organism-based. The settings on record: in vivo.
Data set [6] in a line: Drug metabolism in human liver microsomes assessed as oxidised metabolite formation at 1 uM measured after 60 mins in presence of NADPH by MetID study analysis. The format is ADME, Microsome. Conditions: 1 h.
A short description of data set [7]: Kinetic solubility of the compound in phosphate buffer saline at pH 7.4 at 200 uM by LC-UV analysis. The format is physicochemical. Conditions: read-out: Kinetic_solubility.
A short description of data set [8]: Intrinsic clearance in human liver microsomes at 1 uM measured for 60 mins in presence of NADPH by LC-MS/MS analysis. In kind it is ADME, Microsome. Conditions: read-out: CLH.
Data set [9] can be described thus: Apparent passive permeability of the compound in phosphate buffer saline at pH 7.4 at 5 uM incubated for 4 hrs by PAMPA assay. The format is ADME.
Data set [10] is described as follows: Drug metabolism in C57BL/6 mouse liver microsomes assessed as oxidised metabolite formation at 1 uM measured after 60 mins in presence of NADPH by MetID study analysis. In kind it is ADME, Microsome. Conditions: 1 h.
The nature of data set [11]: Intrinsic clearance in C57BL/6 mouse liver microsomes at 1 uM measured for 60 mins in presence of NADPH by LC-MS/MS analysis. The format is ADME, Microsome. The settings on record: read-out: CLH.
Data set [12] can be described thus: Volume of distribution at steady state in Sprague-Dawley rat at 0.5 mg/kg, iv measured for 24 hrs by LC-MS/MS analysis. The settings on record: in vivo, read-out: Vdss. The format is ADME, organism-based.
Data set [13] is described as follows: Half life in Sprague-Dawley rat at 0.5 mg/kg, iv measured for 24 hrs by LC-MS/MS analysis. The format is ADME, organism-based. The settings on record: in vivo.
Data set [14] can be described thus: Drug metabolism in human liver microsomes assessed as 1'-(6-((2-(trifluoromethyl)pyridin-3-yl)sulfonyl)-1H-imidazo[4,5-b]pyrazin-2-yl)-1,3-dihydrospiro[indene-2,4'-piperidin]-1-amine formation at 1 uM measured after 60 mins in presence of NADPH by MetID study analysis. In kind it is ADME, Microsome.
The target of data set [15] is T1, Tyrosine-protein phosphatase non-receptor type 11. Description: Binding affinity to N-terminal biotinylated AviTag-G4SG4S-tagged recombinant SHP2 (1 to 525 residues) (unknown origin) by SPR analysis.
The nature of data set [16]: Half life in BALB/c mouse at 1 mg/kg, iv measured for 24 hrs by LC-MS/MS analysis. Conditions: in vivo. In kind it is ADME, organism-based.
Data set [17] in a line: Intrinsic clearance in BALB/c mouse at 1 mg/kg, iv measured for 24 hrs by LC-MS/MS analysis. Conditions: in vivo. In kind it is ADME, organism-based.
Data set [18] in a line: Volume of distribution at steady state in BALB/c mouse at 1 mg/kg, iv measured for 24 hrs by LC-MS/MS analysis. The format is ADME, organism-based. The settings on record: in vivo, read-out: Vdss.
Data set [19] can be described thus: Oral bioavailability in BALB/c mouse at 50 mg/kg measured for 24 hrs by LC-MS/MS analysis. In kind it is ADME, organism-based. The settings on record: in vivo.

Values after ≈ are worked out from the molar mass of the structure shown.

In general, IC50 refers to the concentration at which inhibition is half-maximal. In the case of `CC1(N)CCN(c2cnc(Sc3cccnc3C(F)(F)F)c(N)n2)CC1`, in data set [1], the IC50 came to 142 nM.
What is called EC50 is the midpoint of the concentration-response curve. `CC1(N)CCN(c2nc3ncc(Sc4cccnc4C(F)(F)F)nc3[nH]2)CC1`: the concentration for half-maximal inhibition (IC50) in data set [1] came to 74 nM. The EC50 in data set [2] turned out to be 1760 nM.
Consider `CC1(N)CCN(c2nc3ncc(Sc4cccnc4C(F)(F)F)cc3[nH]2)CC1`, for which the IC50 in data set [1] was above 33000 nM.
On the same count and under the same terms, with `N[C@@H]1CCCC12CCN(c1nc3nc(Sc4cccnc4C(F)(F)F)cnc3[nH]1)CC2` the figure was 290 nM; with `CC1(N)CCN(c2nc3ncc(Oc4cccc(Cl)c4Cl)nc3[nH]2)CC1`, 521 nM; with `NC1CCN(c2nc3nc(Sc4cccnc4C(F)(F)F)cnc3[nH]2)CC1`, 664 nM.
Consider `Nc1nccc(Sc2cnc3[nH]c(N4CCC5(CC4)Cc4ccccc4[C@H]5N)nc3n2)c1Cl`, for which the IC50 in [1] came out at 4 nM; in data set [3], 900 nM. Moreover, the EC50 with KYSE-520 cell line was 598 nM; in data set [2] it was 75 nM.
Consider `CC1(N)CCN(c2nc3cnc(Sc4cccnc4C(F)(F)F)nc3[nH]2)CC1`, for which the IC50 in data set [1] came out at 808 nM.
For orientation: Papp means a coefficient for how fast a substance crosses the barrier. Usually half-life stands for how long it takes for the measured level to halve. Read a high half-life as slow loss. By Kd is commonly meant the equilibrium constant for the complex coming apart. Consider `N[C@@H]1c2ccccc2CC12CCN(c1nc3nc(Sc4cccnc4C(F)(F)F)cnc3[nH]1)CC2`, for which the IC50 in data set [1] came out at 5 nM; in [3], 1800 nM. Moreover, the Drug metabolism entry in data set [4], in [6], in data set [10] and in [14] was “Metabolite_Detected” each time. For the same compound, in [5], the CL worked out at 24 mL/min/kg. In [7], the solubility kinetic at 200 µM was determined as 154 µM (≈ 76.6 µg/mL). For the same compound, the values for the CLint scaled at 1 µM in data set [8] and in data set [11] were 74 mL/min/kg and 297 mL/min/kg, respectively. The Papp at 4 h, 5 µM in data set [9] worked out at 0.027 ×10⁻⁶ cm/s. In addition, the Vd in data set [12] is 0.4 L/kg. In addition, the EC50 with KYSE-520 cell line stood at 547 nM; in data set [2], 42 nM. In addition, the half-life in data set [13] was 24 min. Also, the Kd in data set [15] stood at 0.6 nM.
For the compound `CNC1CCN(c2nc3nc(Sc4cccnc4C(F)(F)F)cnc3[nH]2)CC1`, the IC50 in data set [1] came out at 1180 nM.
Usually bioavailability stands for dose-corrected exposure relative to a reference, in per cent. A lower bioavailability goes with little systemic uptake. `CNc1nccc(Sc2cnc3[nH]c(N4CCC5(CC4)Cc4ccccc4[C@H]5N)nc3n2)c1Cl`: the half-inhibitory concentration (IC50) in [1] amounted to 6 nM; in data set [3] it was 4200 nM. Also, the half-life is above 240 min in data set [16] and above 138 min in data set [13]. In addition, the CL stood at 17 mL/min/kg in data set [5] and 14 mL/min/kg in data set [17]. Moreover, the apparent permeability (Papp) at 4 h, 5 µM in [9] is 0.02 ×10⁻⁶ cm/s. Also, the Vd in data set [12] turned out to be 1.9 L/kg; in [18], 1.8 L/kg. The EC50 in the data set on KYSE-520 cell line was determined as 520 nM; in data set [2], 37 nM. In addition, the bioavailability in [19] came out at 7%.
As for `CC1(N)CCN(c2nc3ncc(Sc4cccnc4C(F)(F)F)nc3s2)CC1`, in data set [1], the IC50 is above 64000 nM.
Still for that read-out and setting: with `Cc1nc2nc(N3CCC(C)(N)CC3)[nH]c2nc1Sc1cccc(Cl)c1Cl` the figure was 436 nM.
Turning to `Cn1c(N2CCC(C)(N)CC2)nc2nc(Sc3cccnc3C(F)(F)F)cnc21`, the IC50 in data set [1] amounted to 409 nM.
Same read-out and setting: with `CC1(N)CCN(c2nc3ccc(Sc4cccnc4C(F)(F)F)cc3[nH]2)CC1` the figure was above 16000 nM.
For `N[C@@H]1c2ccccc2CC12CCN(c1nc3nc(Sc4ccncc4Cl)cnc3[nH]1)CC2`, the IC50 in data set [1] turned out to be 3 nM; in [3], 3100 nM. Besides, the EC50 in the data set on KYSE-520 cell line worked out at 325 nM; in [2] it was 51 nM.
As for `CC1(N)CCN(c2nc3nc(Sc4cccnc4C(F)(F)F)cnc3s2)CC1`, in data set [1], the IC50 is 887 nM.
On the same count and under the same terms, with `CC1(N)CCN(c2nc3ncc(Sc4cccc(Cl)c4Cl)nc3[nH]2)CC1` the figure was 47 nM.
Turning to `C[C@@H]1OCC2(CCN(c3nc4nc(Sc5cccnc5C(F)(F)F)cnc4[nH]3)CC2)[C@@H]1N`, the IC50 in data set [1] stood at 64 nM. The EC50 in data set [2] was 2850 nM.
On to `CC1(N)CCN(c2nc3ncc(-c4cccc(Cl)c4Cl)nc3[nH]2)CC1`, for which the IC50 in data set [1] came out at 797 nM.
On the same count and under the same terms, with `Cn1c(N2CCC(C)(N)CC2)nc2ncc(Sc3cccnc3C(F)(F)F)nc21` the figure was 1360 nM; with `NC1CCCN(c2nc3nc(Sc4cccnc4C(F)(F)F)cnc3[nH]2)C1` (stereo unspecified), 435 nM.
